# Settings: level of nitrite and sulfite ions in the water
substance,measurement,value
nitrite and sulfite ions,Level at which the antiseptic effect is inadequate,less than 0.08 mg/L

# Source: patent US7964104B2, “Active antiseptic water or active water-based fluid, and production method and apparatus for the same” (Japan Techno Co., Ltd., priority 2003, dated 2011)
